In PubChem BioAssay AID330 (DTP/NCI, 2004):
“And” between values parts separate entries of the source, which are not always exact repeats. Equal values may be shown once. Toxic doses and inconclusive results are not listed. Rule for the calls: active = survival T/C of 150% or more; inactive = T/C below 125% in these data.

Test system: P388 leukemia ip, CD2F1 mice, survival T/C
Test: NCI In Vivo Anticancer Drug Screen. Data for tumor model P388 Leukemia (intraperitoneal) in CD2F1 (CDF1) mice
Details: endpoint: median survival time, higher = longer survival
Method in brief: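 Mice carrying the transplanted tumor received test compound or vehicle. Survival was recorded in each group, and the value is the treated-group measurement divided by that of the vehicle-treated control group.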

[1] = dose: 50.0 mg/kg/injection, schedule: Q01DX009 (ip), vehicle: saline
[2] = dose: 100.0 mg/kg/injection, schedule: Q01DX009 (ip), vehicle: saline
[3] = dose: 200.0 mg/kg/injection, schedule: Q01DX009 (ip), vehicle: saline
[4] = dose: 50.0 mg/kg/injection, schedule: Q01DX005 (ip), vehicle: Klucel (hydroxypropylcellulose) (HPC)
[5] = dose: 100.0 mg/kg/injection, schedule: Q01DX005 (ip), vehicle: Klucel (hydroxypropylcellulose) (HPC)
[6] = dose: 200.0 mg/kg/injection, schedule: Q01DX005 (ip), vehicle: Klucel (hydroxypropylcellulose) (HPC)
[7] = dose: 50.0 mg/kg/injection, schedule: Q01DX009 (ip), vehicle: Klucel (hydroxypropylcellulose) (HPC)
[8] = dose: 100.0 mg/kg/injection, schedule: Q01DX009 (ip), vehicle: Klucel (hydroxypropylcellulose) (HPC)
[9] = dose: 200.0 mg/kg/injection, schedule: Q01DX009 (ip), vehicle: Klucel (hydroxypropylcellulose) (HPC)
[10] = dose: 60.0 mg/kg/injection, schedule: Q01DX005 (ip), vehicle: saline with Tween-80
[11] = dose: 120.0 mg/kg/injection, schedule: Q01DX005 (ip), vehicle: saline with Tween-80
[12] = dose: 240.0 mg/kg/injection, schedule: Q01DX005 (ip), vehicle: saline with Tween-80
[13] = dose: 100.0 mg/kg/injection, schedule: Q04DX003 (ip), vehicle: saline
[14] = dose: 200.0 mg/kg/injection, schedule: Q04DX003 (ip), vehicle: saline
[15] = dose: 50.0 mg/kg/injection, schedule: Q01DX005 (ip), vehicle: saline with Tween-80
[16] = dose: 100.0 mg/kg/injection, schedule: Q01DX005 (ip), vehicle: saline with Tween-80
[17] = dose: 200.0 mg/kg/injection, schedule: Q01DX005 (ip), vehicle: saline with Tween-80

Measured: T/C

CCCCCCCCCC(=O)CCCCC
inactive: dose: 100.0 mg/kg/injection, schedule: Q01DX009 (ip), vehicle: other 115 % of control | dose: 200.0 mg/kg/injection, schedule: Q01DX009 (ip), vehicle: other 115 % of control | dose: 400.0 mg/kg/injection, schedule: Q01DX009 (ip), vehicle: other 90 % of control

NC(N)=NCCCCCC(=O)O
inactive: [1] 100 % of control | [2] 109 % of control

N#Cc1c(N)sc(=S)c2ccccc12
inactive: [1] 91 % of control | [2] 104 % of control | [3] 95 % of control

O=C(NC(CO)C(=O)OCc1ccccc1)OCCc1ccccn1 (configuration not stated)
inactive: dose: 60.0 mg/kg/injection, schedule: Q01DX005 (ip), vehicle: Klucel (hydroxypropylcellulose) (HPC) 100 % of control | dose: 120.0 mg/kg/injection, schedule: Q01DX005 (ip), vehicle: Klucel (hydroxypropylcellulose) (HPC) 96 % of control | dose: 240.0 mg/kg/injection, schedule: Q01DX005 (ip), vehicle: Klucel (hydroxypropylcellulose) (HPC) 96 % of control

S=P(Oc1cc(Cl)cc(Cl)c1)(Oc1cc(Cl)cc(Cl)c1)Oc1cc(Cl)cc(Cl)c1
inactive: [4] 97 % of control | [5] 100 % of control | [6] 100 % of control

Cc1ccc2c(I)cc(I)c(O)c2n1
inactive: [7] 107 % of control | [8] 102 % of control | [9] 100 % of control

C=C1C(=O)OC2CC3(C)C(CCC(C)=O)C3CC12 (configuration not stated)
inactive: [1] 96 % of control | [2] 94 % of control | [3] 98 % of control

CN=C(N)N/N=C(\C)c1ccc2c(c1)Cc1cccc(Br)c1-2
inactive: dose: 25.0 mg/kg/injection, schedule: Q04DX002 (ip), vehicle: saline with Tween-80 111 % of control | dose: 50.0 mg/kg/injection, schedule: Q04DX002 (ip), vehicle: saline with Tween-80 109 % of control | dose: 100.0 mg/kg/injection, schedule: Q04DX002 (ip), vehicle: saline with Tween-80 109 % of control

NC1=C(O)C(=O)C(c2cccc3ccccc23)O1 (configuration not stated)
inactive: [10] 98 % of control | [11] 93 % of control | [12] 88 % of control

O=C1NC(=O)c2c3ccc(c21)CCc1ccc(c2c1C(=O)NC2=O)CC3
inactive: dose: 50.0 mg/kg/injection, schedule: Q01DX009 (ip), vehicle: saline with Tween-80 97 % of control | dose: 100.0 mg/kg/injection, schedule: Q01DX009 (ip), vehicle: saline with Tween-80 92 % of control | dose: 200.0 mg/kg/injection, schedule: Q01DX009 (ip), vehicle: saline with Tween-80 92 % of control

CC(C)c1ncc(CO)n1Cc1c(Cl)cccc1Cl
inactive: [7] 100 % of control | [8] 102 % of control | [9] 100 % of control

N#Cc1cnc2nc1NCCCCCCC2
inactive: dose: 25.0 mg/kg/injection, schedule: Q04DX003 (ip), vehicle: saline with Tween-80 105 % of control | dose: 50.0 mg/kg/injection, schedule: Q04DX003 (ip), vehicle: saline with Tween-80 98 % of control | dose: 100.0 mg/kg/injection, schedule: Q04DX003 (ip), vehicle: saline with Tween-80 100 % of control

CCCCC(C)(CN(C)C)C(=O)/C=C/c1ccc(Cl)c(Cl)c1 (configuration not stated)
inactive: dose: 3.13 mg/kg/injection, schedule: Q01DX009 (ip), vehicle: saline 111 % of control and 97 % of control | dose: 6.25 mg/kg/injection, schedule: Q01DX009 (ip), vehicle: saline 102 % of control and 108 % of control | dose: 12.5 mg/kg/injection, schedule: Q01DX009 (ip), vehicle: saline 109 % of control | dose: 25.0 mg/kg/injection, schedule: Q01DX009 (ip), vehicle: saline 106 % of control and 109 % of control

CN1CCCC(Cl)(C(=O)c2ccccc2)C1 (configuration not stated)
inactive: [13] 106 % of control | [14] 100 % of control

COc1cc(NCCCCCN=C(N)NC#N)c2ncccc2c1
inactive: [4] 99 % of control | [5] 98 % of control | [6] 92 % of control

Cn1nc(-c2ccc(S(=O)(=O)F)cc2)s/c1=N/NC(=O)c1ccccc1
inactive: dose: 60.0 mg/kg/injection, schedule: Q01DX005 (ip), vehicle: Klucel + Tween-80 87 % of control | dose: 120.0 mg/kg/injection, schedule: Q01DX005 (ip), vehicle: Klucel + Tween-80 92 % of control

CN1CCC(c2ccccc2)(C(O)(c2ccccc2)c2ccccc2)CC1
inactive: dose: 12.5 mg/kg/injection, schedule: Q01DX005 (ip), vehicle: saline with Tween-80 90 % of control | dose: 25.0 mg/kg/injection, schedule: Q01DX005 (ip), vehicle: saline with Tween-80 100 % of control | [15] 100 % of control and 111 % of control | [16] 107 % of control

Cn1c(=O)c2c(c3ccccc31)OC(C)(C)C=C2
inactive: [15] 100 % of control | [16] 100 % of control | [17] 105 % of control

O=C1CC(=O)N(CN2C(=O)CC(=O)NC2=S)C(=S)N1
inactive: [4] 100 % of control | [5] 103 % of control | [6] 105 % of control

Cc1nnc(NC(=O)c2cc(=O)c3cc(Cl)ccc3o2)s1
inactive: [4] 100 % of control | [5] 106 % of control | [6] 100 % of control

CCN1NC1C (configuration not stated)
inactive: dose: 50.0 mg/kg/injection, schedule: Q01DX005 (ip), vehicle: saline 105 % of control | dose: 100.0 mg/kg/injection, schedule: Q01DX005 (ip), vehicle: saline 97 % of control | dose: 200.0 mg/kg/injection, schedule: Q01DX005 (ip), vehicle: saline 97 % of control

NS(=O)(=O)c1cc([N+](=O)[O-])c(SSc2sc(S(N)(=O)=O)cc2[N+](=O)[O-])s1
inactive: dose: 25.0 mg/kg/injection, schedule: Q04DX003 (ip), vehicle: Klucel (hydroxypropylcellulose) (HPC) 104 % of control | dose: 50.0 mg/kg/injection, schedule: Q04DX003 (ip), vehicle: Klucel (hydroxypropylcellulose) (HPC) 101 % of control | dose: 100.0 mg/kg/injection, schedule: Q01DX001 (ip), vehicle: Klucel (hydroxypropylcellulose) (HPC) 106 % of control | dose: 100.0 mg/kg/injection, schedule: Q04DX003 (ip), vehicle: Klucel (hydroxypropylcellulose) (HPC) 107 % of control | dose: 200.0 mg/kg/injection, schedule: Q01DX001 (ip), vehicle: Klucel (hydroxypropylcellulose) (HPC) 99 % of control

C1=CCONC1
inactive: dose: 50.0 mg/kg/injection, schedule: Q04DX003 (ip), vehicle: saline 93 % of control | [13] 104 % of control | [14] 92 % of control

NC(=O)C1CCCN1C(=O)/C=C\c1ccccc1 (configuration not stated)
inactive: [10] 109 % of control | [11] 112 % of control | [12] 101 % of control

CCCCc1c(OS(=O)(=O)c2ccc(C)cc2)c(C#N)c2[nH]c3ccccc3n2c1=O
inactive: [10] 91 % of control | [11] 96 % of control | [12] 89 % of control

C=C1C2CCC3C4(C)CCCC(C)(C(=O)O)C4CCC3(C2)C1OC(=O)/C(C)=C/C (configuration not stated)
inactive: dose: 12.5 mg/kg/injection, schedule: Q01DX005 (ip), vehicle: Klucel (hydroxypropylcellulose) (HPC) 102 % of control | dose: 25.0 mg/kg/injection, schedule: Q01DX005 (ip), vehicle: Klucel (hydroxypropylcellulose) (HPC) 96 % of control | [4] 90 % of control | [15] 99 % of control | [5] 87 % of control | [16] 95 % of control | [17] 95 % of control | dose: 400.0 mg/kg/injection, schedule: Q01DX005 (ip), vehicle: saline with Tween-80 95 % of control

COc1ccc(CC(C#N)c2ccc(OC)cc2)cc1 (configuration not stated)
inactive: [7] 111 % of control and 96 % of control | [8] 100 % of control and 96 % of control | [9] 99 % of control and 93 % of control
